For 21 molecules, IC50 results are on record in patent US7750155B2, “Pyrazinyl hydroxyacrylamide compounds having an inhibitory effect on the activity of histone deacetylase” (Astellas Pharma Inc., priority 2006, dated 2010).

Test [1] relates to T1, human histone deacetylase partially purified from human T cell leukemia Jurkat cells.
T1 construct: The human histone deacetylase was partially purified from human T cell leukemia Jurkat cells
Briefly: Test 1: Determination of histone deacetylase inhibitor activity ([3H]acetyl histone deacetylation). In kind it is biochemical. The settings on record: partially purified human HDAC from Jurkat cells, [3H]acetyl histone substrate, 25° C., 30 minutes; read-out: Test 1: HDAC inhibitory activity IC50. As to the method: Test 1: Determination of Histone Deacetylase Inhibitor Activity
The partial purification of human histone deacetylase, the preparation of [^3H] acetyl histones, and the assay for histone deacetylase activity were performed basically according to the method as proposed by Yoshida et al. as follows.
Partial Purification of Human Histone Deacetylase
The human histone deacetylase was partially purified from human T cell leukemia Jurkat cells. Jurkat cells (5×10^8 cells) were suspended in 40 mL of the HDA buffer consisting of 15 mM potassium phosphate, pH 7.5, 5% glycerol and 0.2 mM EDTA. After homogenization, nuclei were collected by centrifugation (35,000×g, 10 min) and homogenized in 20 mL of the same buffer supplemented with 1 M (NH4)2SO4. The viscous homogenate was sonicated and clarified by centrifugation (35,000×g, 10 min), and the deacetylase was precipitated by raising the concentration of (NH4)2SO4 to 3.5 M. The precipitated protein was dissolved in 10 mL of the HDA buffer and dialyzed against 4 liters of the same buffer. The dialyzate was then loaded onto a DEAE-cellulose (Whatman DE52) column (25×85 mm) equilibrated with the same buffer and eluted with 300 mL of a linear gradient (0-0.6 M) of NaCl. A single peak of histone deacetylase activity appeared between 0.3 and 0.4 M NaCl.
Preparation of [^3H] Acetyl Histone
To obtain [^3H] acetyl-labeled histone as the substrate for the histone deacetylase assay, 1×10^8 cells of Jurkat in 20 mL of RPMI-1640 medium (supplemented with 10% FBS, penicillin (50 units/mL) and streptomycin (50 μg/mL)) were incubated with 300 MBq [^3H] sodium acetate in the presence of 5 mM sodium butyrate for 30 minutes in 5% CO2-95% air atmosphere at 37° C. in a […] flask, harvested into a centrifuge tube (50 mL), collected by centrifugation at 1000 rpm for 10 minutes, and washed once with phosphate-buffered saline. The washed cells were suspended in 15 mL of ice-cold lysis buffer (10 mM Tris-HCl, 50 mM sodium bisulfite, 1% Triton X-100, 10 mM MgCl2, 8.6% sucrose, pH 6.5). After Dounce homogenization (30 stroke), the nuclei were collected by centrifugation at 1000 rpm for 10 minutes, washed 3 times with 15 mL of the lysis buffer, and once with 15 mL of ice-cooled washing buffer (10 mM Tris-HCl, 13 mM EDTA, pH 7.4) successively. The pellet was suspended in 6 mL of ice-cooled water using a mixer, and 68 μl of H2SO4 was added to the suspension to give a concentration of 0.4 N. After incubation at 4° C. for 1 hour, the suspension was centrifuged for 5 minutes at 15,000 rpm, and the supernatant was taken and mixed with 60 mL of acetone. After overnight incubation at −20° C., the coagulated material was collected by microcentrifugation, air-dried, and stored at −80° C.
Assay for Histone Deacetylase Activity
For the standard assay, 10 μl of [^3H] acetyl-labeled histones were added to 90 μl of the enzyme fraction, and the mixture was incubated at 25° C. for 30 minutes. The reaction was stopped by addition of 10 μl of HCl. The released [^3H] acetic acid was extracted with 1 mL of ethyl acetate, and 0.9 mL of the solvent layer was taken into 10 mL of toluene scintillation solution for determination of radioactivity.

Test [2] concerns splenic cells of Lewis rats (T lymphocyte blastogenesis). Nature of the test: Test 2: T-cell growth inhibitor activity (T lymphocyte blastogenesis, Concanavalin A, AlamarBlue). The class given is cell-based. The conditions noted are these: Lewis rat splenic cells, Concanavalin A 1 μg/mL, 72 hours, read-out: Test 2: T-cell growth inhibitory activity IC50. As to the method: Test 2: Determination of T-Cell Growth Inhibitor Activity
The T lymphocyte blastogenesis test was performed in microtiter plates with each well containing 1.5×10^5 splenic cells of Lewis rats in 0.1 mL RPMI-1640 medium supplemented with 10% fetal bovine serum (FBS), […] 2-mercaptoethanol, penicilln (100 units/mL) and streptomycin (100 μg/mL), to which Concanavalin A (1 μg/mL) was added. The cells were incubated at 37° C. in a humidified atmosphere of 5% CO2 for 72 hours. After the culture period, suppressive activities of the test compounds in T lymphocyte blastogenesis were quantified by AlamarBlue (trademark) Assay. The test samples were dissolved in DMSO and further diluted with RPMI-1640 medium and added to the culture. The activities of the test compounds were expressed as IC50.

Molecules are shown by their SMILES. pIC50: −log10 of the molar value. Counter-ions that a name gives are not always drawn.

As for `O=C(/C=C/c1cnc(N[C@@H]2CCN(CCc3ccc(F)cc3F)C2)cn1)NO` [Example 2, (2E)-3-[5-({(3R)-1-[2-(2,4-difluorophenyl)ethyl]-3-pyrrolidinyl}amino)-2-pyrazinyl]-N-hydroxyacrylamide dihydrochloride], the pIC50 in test [1] is 8.82; in test [2] it was 8.64.

Take `O=C(/C=C/c1cnc(N[C@@H]2CCN(CCc3c(F)cccc3F)C2)cn1)NO` [Example 3, (2E)-3-[5-({(3R)-1-[2-(2,6-difluorophenyl)ethyl]-3-pyrrolidinyl}amino)-2-pyrazinyl]-N-hydroxyacrylamide dihydrochloride]: the negative-log IC50 (pIC50) in test [1] was 8.57; in test [2], 8.92.

As for `O=C(/C=C/c1cnc(N[C@@H]2CCN(CCc3cccs3)C2)cn1)NO` [Example 4, (2E)-N-hydroxy-3-[5-({(3R)-1-[2-(2-thienyl)ethyl]-3-pyrrolidinyl}amino)-2-pyrazinyl]acrylamide dihydrochloride], the figures for the pIC50 in test [1] and in test [2] were 8.44 and 8.92, respectively.

As to `O=C(/C=C/c1cnc(N[C@@H]2CCCN(CCc3ccccc3F)C2)cn1)NO` [Example 7, (2E)-3-[5-({(3R)-1-[2-(2-fluorophenyl)ethyl]-3-piperidinyl}amino)-2-pyrazinyl]-N-hydroxyacrylamide dihydrochloride], the values for the pIC50 in test [1] and in test [2] were 8.82 and 9.10, respectively.

In the case of `O=C(/C=C/c1cnc(N[C@@H]2CCCN(CCc3ccc(F)cc3F)C2)cn1)NO` [Example 8, (2E)-3-[5-({(3R)-1-[2-(2,4-difluorophenyl)ethyl]-3-piperidinyl}amino)-2-pyrazinyl]-N-hydroxyacrylamide dihydrochloride], the pIC50 in test [1] was 8.77; in test [2], 8.96.

Consider `O=C(/C=C/c1cnc(N[C@@H]2CCCN(CCc3ccc(F)c(F)c3)C2)cn1)NO` [Example 9, (2E)-3-[5-({(3R)-1-[2-(3,4-difluorophenyl)ethyl]-3-piperidinyl}amino)-2-pyrazinyl]-N-hydroxyacrylamide dihydrochloride], for which the pIC50 in test [1] is 9.00; in test [2], 8.74.

Turning to `CN(C)c1ccccc1CN1CC[C@@H](Nc2cnc(/C=C/C(=O)NO)cn2)C1` [Example 10, (2E)-3-[5-({(3R)-1-[2-(dimethylamino)benzyl]-3-pyrrolidinyl}amino)-2-pyrazinyl]-N-hydroxyacrylamide trihydrochloride], the pIC50 in test [1] was 8.52; in test [2] it was 8.49.

`COc1cc(CN2CC[C@@H](Nc3cnc(/C=C/C(=O)NO)cn3)C2)ccc1F` [Example 11, (2E)-3-(5-{[(3R)-1-(4-fluoro-3-methoxybenzyl)-3-pyrrolidinyl]amino}-2-pyrazinyl)-N-hydroxyacrylamide dihydrochloride]: the negative logarithm of the IC50 (pIC50) in test [1] is 9.02; in test [2], 8.35.

On to `O=C(/C=C/c1cnc(N[C@@H]2CCN(CC3CCCC3)C2)cn1)NO` [Example 12, (2E)-3-(5-{[(3R)-1-(cyclopentylmethyl)-3-pyrrolidinyl]amino}-2-pyrazinyl)-N-hydroxyacrylamide dihydrochloride], for which the negative-log IC50 (pIC50) in test [1] was 9.23; in test [2] it was 8.70.

For `O=C(/C=C/c1cnc(N[C@@H]2CCN(CC3(CO)CCCCC3)C2)cn1)NO` [Example 13, (2E)-N-hydroxy-3-(5-{[(3R)-1-{[1-(hydroxymethyl)cyclohexyl]methyl}-3-pyrrolidinyl]amino}-2-pyrazinyl)acrylamide dihydrochloride], the figures for the negative logarithm of the IC50 (pIC50) in test [1] and in test [2] were 8.72 and 8.33, respectively.

Regarding `O=C(/C=C/c1cnc(N[C@@H]2CCN(CC34CCC(CC3)O4)C2)cn1)NO` [Example 14, (2E)-N-hydroxy-3-(5-{[(3R)-1-(7-oxabicyclo[2.2.1]hept-1-ylmethyl)-3-pyrrolidinyl]amino}-2-pyrazinyl)acrylamide dihydrochloride], the pIC50 in test [1] was 8.42; in test [2] it was 8.92.

Consider `COc1ccc(F)cc1CN1CC[C@@H](Nc2cnc(/C=C/C(=O)NO)cn2)C1` [Example 15, (2E)-3-(5-{[(3R)-1-(5-fluoro-2-methoxybenzyl)-3-pyrrolidinyl]amino}-2-pyrazinyl)-N-hydroxyacrylamide dihydrochloride], for which the negative logarithm of the IC50 (pIC50) is 8.36 in test [1] and 8.19 in test [2].

`O=C(/C=C/c1cnc(N[C@@H]2CCN(Cc3cccc4ccccc34)C2)cn1)NO` [Example 16, (2E)-N-hydroxy-3-[5-[{(3R)-1-(1-naphthylmethyl)-3-pyrrolidinyl}amino]-2-pyrazinyl]acrylamide dihydrochloride]: the negative logarithm of the IC50 (pIC50) in test [1] was 8.18; in test [2] it was 8.39.

Consider `O=C(/C=C/c1cnc(N[C@@H]2CCCN(CCCc3ccccc3)C2)cn1)NO` [Example 17, (2E)-N-hydroxy-3-[5-[{(3R)-1-(3-phenylpropyl)-3-piperidinyl}amino]-2-pyrazinyl]acrylamide dihydrochloride], for which the pIC50 in test [1] is 8.48; in test [2], 8.30.

Regarding `O=C(/C=C/c1cnc(N[C@@H]2CCN(CCC3CCCC3)C2)cn1)NO` [Example 20, (2E)-3-(5-{[(3R)-1-(2-cyclopentylethyl)-3-pyrrolidinyl]amino}-2-pyrazinyl)-N-hydroxyacrylamide dihydrochloride], the negative-log IC50 (pIC50) in test [1] was 9.10; in test [2], 8.68.

In the case of `O=C(/C=C/c1cnc(N[C@@H]2CCN(CCC3CCCCC3)C2)cn1)NO` [Example 21, (2E)-3-(5-{[(3R)-1-(2-cyclohexylethyl)-3-pyrrolidinyl]amino}-2-pyrazinyl)-N-hydroxyacrylamide dihydrochloride], the negative-log IC50 (pIC50) in test [1] is 9.01; in test [2], 8.62.

Regarding `O=C(/C=C/c1cnc(N[C@@H]2CCN(CCc3ccccc3Cl)C2)cn1)NO` [Example 22, (2E)-3-[5-({(3R)-1-[2-(2-chlorophenyl)ethyl]-3-pyrrolidinyl}amino)-2-pyrazinyl]-N-hydroxyacrylamide dihydrochloride], the pIC50 in test [1] is 9.06; in test [2] it was 8.89.

Consider `O=C(/C=C/c1cnc(N[C@@H]2CCCN(CCC3CCCC3)C2)cn1)NO` [Example 24, (2E)-3-(5-{[(3R)-1-(2-cyclopentylethyl)-3-piperidinyl]amino}-2-pyrazinyl)-N-hydroxyacrylamide dihydrochloride], for which the negative logarithm of the IC50 (pIC50) in test [1] was 9.09; in test [2] it was 8.62.

In the case of `O=C(/C=C/c1cnc(N[C@@H]2CCCN(CCc3ccccc3Cl)C2)cn1)NO` [Example 26, (2E)-3-[5-({(3R)-1-[2-(2-chlorophenyl)ethyl]-3-piperidinyl}amino)-2-pyrazinyl]-N-hydroxyacrylamide dihydrochloride], the pIC50 in test [1] is 8.85; in test [2], 9.36.

For the molecule `O=C(/C=C/c1cnc(N[C@@H]2CCCN(CCc3ccc(Cl)cc3)C2)cn1)NO` [Example 27, (2E)-3-[5-({(3R)-1-[2-(4-chlorophenyl)ethyl]-3-piperidinyl}amino)-2-pyrazinyl]-N-hydroxyacrylamide dihydrochloride], the values for the pIC50 in test [1] and in test [2] were 9.04 and 9.42, respectively.

Turning to `CC(C)(CN1CC[C@@H](Nc2cnc(/C=C/C(=O)NO)cn2)C1)c1ccccc1` [Example 28, (2E)-N-hydroxy-3-[5-[{(3R)-1-(2-methyl-2-phenylpropyl)-3-pyrrolidinyl}amino]-2-pyrazinyl]acrylamide dihydrochloride], the values for the pIC50 in test [1] and in test [2] were 8.38 and 7.96, respectively.
